From DBAASP
In brackets after ≈: the same amount, converted by molar mass. One block for each compound: values may come before it.

Columns and labels:
Experiment in all cases: ≥ marks a high value that may be exact or a test limit, other limits are often not marked, values filed in µg/mL are converted to µM
Staphylococcus aureus = system: Staphylococcus aureus
Streptococcus sanguinis = system: Streptococcus sanguinis
[1] = system: Candida albicans ATCC 90028
[2] = system: Candida glabrata ATCC 90030
Candida krusei ATCC 6258 = system: Candida krusei ATCC 6258
[3] = system: Enterobacter cloacae ATCC 13047
[4] = system: Enterococcus faecalis ATCC 4028
[5] = system: Escherichia coli ATCC 25922
[6] = system: Pseudomonas aeruginosa ATCC 27853
[7] = system: Staphylococcus aureus ATCC 29213
[8] = system: Staphylococcus epidermidis ATCC 12228
[9] = system: Acinetobacter baumannii ATCC 17978
[10] = system: Enterococcus faecalis ATCC 19433
[11] = system: Enterococcus faecalis ATCC 29212
[12] = system: Enterococcus faecalis ATCC BAA-2365
[13] = system: Enterococcus faecium ATCC BAA-2316
[14] = system: Escherichia coli NCTC 12923
[15] = system: Klebsiella pneumoniae NCTC 13368
[16] = system: Pseudomonas aeruginosa PAO1
[17] = system: Staphylococcus aureus ATCC 33591
[18] = system: Staphylococcus aureus ATCC 43300
[19] = system: Staphylococcus aureus ATCC 9144
[20] = system: Staphylococcus aureus ATCC BAA-41
[21] = system: Staphylococcus aureus USA 300
[22] = system: Escherichia coli K12 MG1655
Escherichia coli UTI89 = system: Escherichia coli UTI89
[23] = system: Salmonella enterica subsp. enterica serovar Typhimurium ATCC 14028
[24] = system: Staphylococcus epidermidis
[25] = system: Pseudomonas aeruginosa ATCC 9027
[26] = system: Staphylococcus aureus ATCC 19636
[27] = system: Staphylococcus aureus ATCC 25923
[28] = system: Candida albicans ATCC 90029
Escherichia coli = system: Escherichia coli
[29] = system: Salmonella enterica subsp. enterica serovar Pullorum CVCC 3533
[30] = system: Salmonella enterica subsp. enterica serovar Pullorum
[31] = system: Candida albicans ATCC 14053
[32] = system: Escherichia coli ATCC 11775
[33] = system: Micrococcus luteus ATCC 49732
[34] = system: Staphylococcus aureus ATCC 12600
Candida albicans = system: Candida albicans
[35] = system: Candida krusei CGMCC 2.1857
[36] = system: Candida parapsilosis CGMCC 2.3989
[37] = system: Candida tropicalis CGMCC 2.1975
Escherichia coli 1005 = system: Escherichia coli 1005
[38] = system: Salmonella enterica subsp. enterica serovar Pullorum ATCC 7913

MIC (Staphylococcus aureus): 14.3 µM (≈ 12.8 µg/mL)
MIC (Streptococcus sanguinis): 8.3 µM (≈ 7.48 µg/mL)
Structure (SMILES): NC(=O)[C@H](Cc1ccccc1)NC(=O)[C@H](Cc1ccccc1)NC(=O)[C@H](Cc1ccccc1)NC(=O)[C@H](Cc1ccccc1)NC(=O)[C@H](Cc1ccccc1)NC(=O)[C@@H](N)Cc1ccccc1 [FFFFFF]

MIC [1]: 9.4 µM (≈ 18.6 µg/mL)
MIC [2]: 9.4 µM (≈ 18.6 µg/mL)
MIC (Candida krusei ATCC 6258): 9.4 µM (≈ 18.6 µg/mL)
MIC [3]: 18.8 µM (≈ 37.2 µg/mL)
MIC [4]: 4.7 µM (≈ 9.3 µg/mL)
MIC [5]: 2.3 µM (≈ 4.55 µg/mL)
MIC [6]: 4.7 µM (≈ 9.3 µg/mL)
MIC [7]: 1.2 µM (≈ 2.37 µg/mL)
MIC [8]: 2.3 µM (≈ 4.55 µg/mL)
Structure (SMILES): CC[C@H](C)[C@H](NC(=O)[C@H](CC(C)C)NC(=O)[C@H](CCCCN)NC(=O)[C@H](CCCCN)NC(=O)[C@@H](NC(=O)[C@H](CC(C)C)NC(=O)[C@H](CO)NC(=O)[C@@H]1CCCN1C(=O)[C@@H](NC(=O)[C@H](CC(C)C)NC(=O)[C@H](CO)NC(=O)[C@H](Cc1ccccc1)NC(=O)[C@@H](N)Cc1ccccc1)[C@@H](C)CC)C(C)C)C(=O)N[C@@H](CCCCN)C(=O)N[C@@H](C)C(=O)N[C@@H](Cc1ccccc1)C(=O)N[C@@H](CCCCN)C(N)=O [FFSLIPSLVKKLIKAFK]

Structure (SMILES): CC[C@H](C)[C@H](NC(=O)[C@H](C)NC(=O)[C@H](CCCCN)NC(=O)[C@H](CCCN=C(N)N)NC(=O)[C@@H](NC(=O)[C@H](CC(C)C)NC(=O)[C@H](CO)NC(=O)[C@H](Cc1ccccc1)NC(=O)[C@H](CC(C)C)NC(=O)[C@@H](N)Cc1ccccc1)[C@@H](C)CC)C(=O)NCC(=O)NCC(=O)N[C@@H](CC(C)C)C(=O)N[C@H](C(=O)N[C@@H](CO)C(=O)N[C@@H](C)C(=O)N[C@@H](Cc1ccccc1)C(=O)N[C@@H](CCCCN)C(=O)O)[C@@H](C)CC [FLFSLIRKAIGGLISAFK]
MIC [9]: 4.04 µM (≈ 8 µg/mL)
MIC [10]: 12.5 µM (≈ 24.8 µg/mL)
MIC [11]: 10 µM (≈ 19.8 µg/mL)
MIC [12]: 5 µM (≈ 9.91 µg/mL)
MIC [13]: 15 µM (≈ 29.7 µg/mL)
MIC [14]: ≥ 64.6 µM
MIC [15]: ≥ 64.6 µM
MIC [16]: > 64.6 µM
MIC [7]: 5 µM (≈ 9.91 µg/mL)
MIC [17]: 5 µM (≈ 9.91 µg/mL)
MIC [18]: 5 µM (≈ 9.91 µg/mL)
MIC [19]: 8.07 µM (≈ 16 µg/mL)
MIC [20]: 5 µM (≈ 9.91 µg/mL)
MIC [21]: 16.1 µM (≈ 32 µg/mL)
MIC [8]: 2.5 µM (≈ 4.95 µg/mL)

MIC [22]: 7 µM (≈ 13.1 µg/mL)
MIC (Escherichia coli UTI89): 6.25 µM (≈ 11.7 µg/mL)
MIC [23]: 29 µM (≈ 54.4 µg/mL)
MIC [24]: ≥ 50 µM
Structure (SMILES): CC[C@H](C)[C@H](NC(=O)[C@H](CCCN=C(N)N)NC(=O)[C@H](CCC(N)=O)NC(=O)[C@H](Cc1c[nH]c2ccccc12)NC(=O)[C@@H](NC(=O)[C@H](CCCCN)NC(=O)[C@@H](N)CCCCN)[C@@H](C)CC)C(=O)N[C@@H](CCCCN)C(=O)N[C@@H](CC(N)=O)C(=O)N[C@@H](Cc1ccccc1)C(=O)N[C@@H](Cc1ccccc1)C(=O)N[C@@H](CCC(N)=O)C(=O)N[C@@H](CCCCN)C(=O)N[C@@H](CC(C)C)C(=O)O [KKIWQRIKNFFQKL]

MIC [5]: 7.42 µM (≈ 12.5 µg/mL)
MIC [6]: 14.8 µM (≈ 25 µg/mL)
MIC [25]: 14.8 µM (≈ 25 µg/mL)
MIC [26]: 3.74 µM (≈ 6.3 µg/mL)
MIC [27]: > 29.7 µM
MIC [7]: 29.7 µM (≈ 50 µg/mL)
Structure (SMILES): CC(C)C[C@H](NC(=O)[C@H](C)NC(=O)[C@H](CCCCN)NC(=O)[C@H](CC(C)C)NC(=O)[C@H](Cc1c[nH]c2ccccc12)NC(=O)[C@H](CCCCN)NC(=O)[C@H](CCCN=C(N)N)NC(=O)[C@H](Cc1c[nH]c2ccccc12)NC(=O)[C@H](CCCCN)NC(=O)[C@@H](N)CCCCN)C(=O)N[C@@H](C)C(=O)N[C@@H](CCCCN)C(=O)N[C@@H](CCCCN)C(=O)O [KKWRKWLKALAKK]

MIC [28]: ≥ 36.3 µM
MIC [5]: 9.08 µM (≈ 12.5 µg/mL)
MIC (Escherichia coli): 18.2 µM (≈ 25 µg/mL)
MIC [29]: 4.54 µM (≈ 6.25 µg/mL)
MIC [30]: 4.54 µM (≈ 6.25 µg/mL)
MIC [7]: 18.2 µM (≈ 25 µg/mL)
MIC (Staphylococcus aureus): 18.2 µM (≈ 25 µg/mL)
Structure (SMILES): CC(C)C[C@H](NC(=O)[C@H](CCCCN)NC(=O)[C@H](Cc1cnc[nH]1)NC(=O)[C@H](CCCCN)NC(=O)[C@H](CC(C)C)NC(=O)[C@H](CC(C)C)NC(=O)[C@@H](N)CCCCN)C(=O)N[C@@H](CC(C)C)C(=O)N[C@H](C(=O)N[C@H](C(=O)N[C@@H](CC(C)C)C(=O)N[C@@H](C)C(=O)O)[C@@H](C)O)C(C)C [KLLKHKLLVTLA]

MIC [31]: ≥ 36 µM
MIC [32]: ≥ 128 µM
MIC [33]: ≥ 36 µM
MIC [34]: ≥ 967 µM
Structure (SMILES): C[C@H](NC(=O)[C@H](C)NC(=O)[C@@H](NC(=O)CNC(=O)[C@@H]1CCCN1)[C@@H](C)O)C(=O)N[C@@H](Cc1ccccc1)C(=O)N[C@@H](CCCCN)C(=O)O [PGTAAFK]

MIC (Candida albicans): 1.41 µM (≈ 2.15 µg/mL)
MIC [35]: 2 µM (≈ 3.04 µg/mL)
MIC [36]: 4 µM (≈ 6.08 µg/mL)
MIC [37]: 1 µM (≈ 1.52 µg/mL)
MIC (Escherichia coli 1005): 4 µM (≈ 6.08 µg/mL)
MIC [38]: 2 µM (≈ 3.04 µg/mL)
MIC [23]: 4 µM (≈ 6.08 µg/mL)
MIC [27]: 4 µM (≈ 6.08 µg/mL)
MIC [7]: 4 µM (≈ 6.08 µg/mL)
MIC [18]: 4 µM (≈ 6.08 µg/mL)
MIC [8]: 4 µM (≈ 6.08 µg/mL)
Structure (SMILES): CC[C@H](C)[C@H](NC(=O)[C@H](CCCN=C(N)N)NC(=O)[C@@H](NC(=O)[C@@H](NC(=O)[C@@H](NC(=O)[C@H](CCCN=C(N)N)NC(=O)[C@@H](NC(=O)[C@H](CCCN=C(N)N)NC(=O)[C@@H](N)CCCN=C(N)N)[C@@H](C)CC)[C@@H](C)CC)[C@@H](C)CC)[C@@H](C)CC)C(=O)N[C@@H](CCCN=C(N)N)C(=O)N[C@@H](CCCN=C(N)N)C(N)=O [RRIRIIIRIRR]
